Experimental data: patent US20130109734A1 (Metabolex, Inc., priority 2010, published 2013)

What follows are compounds tested against T1, human GPR120 (Homo sapiens, UniProt Q5NUL3) (assay: Intracellular Ca2+ assay in human GPR120 stable cell line (HEK293 co-expressing Gqi5), Flexstation). Conditions: % activity at 5 μM compared to the maximal activity of GW9508 at 6.7 μM (=100%); human GPR120 cells, Ca2+ fluorescence.
T1 construct: host or cells: HEK293 cells co-expressing Gqi5
T1 sequence (Q5NUL3 1-361): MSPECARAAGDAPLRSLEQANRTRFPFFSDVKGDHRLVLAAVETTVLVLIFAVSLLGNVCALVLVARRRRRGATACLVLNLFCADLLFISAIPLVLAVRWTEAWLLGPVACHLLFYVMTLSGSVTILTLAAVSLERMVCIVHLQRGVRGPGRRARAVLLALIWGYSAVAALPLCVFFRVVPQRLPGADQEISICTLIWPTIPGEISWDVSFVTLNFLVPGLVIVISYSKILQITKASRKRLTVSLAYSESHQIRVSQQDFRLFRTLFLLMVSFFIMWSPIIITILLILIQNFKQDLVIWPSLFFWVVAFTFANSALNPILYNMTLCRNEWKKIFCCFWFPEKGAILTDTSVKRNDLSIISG
Format: cell-based
Procedure, shortened: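 HEK293 cells stably co-expressing Gqi5 and Flag-tagged human GPR120, loaded with Calcium 4 dye in HBSS/HEPES pH 7.4 at 37 °C; compounds at eight concentrations, 0.00001–20 μM, fluorescence (485/525 nm) read 90 s. EC50 from Max−Min change; percent activity relative to GW9508 maximum at 6.7 μM.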

| Compound | % Activity (GW9508 Reference Compound) |
| --- | --- |
| CC(Cc1cc(F)c(OCc2cc(OCc3ccccc3)cc3c2OC(C)(C)C3)c(F)c1)C(=O)O (centres unmarked) [Example 111, 3-(4-((5-(benzyloxy)-2,2-dimethyl-2,3-dihydrobenzofuran-7-yl)methoxy)-3,5-difluorophenyl)-2-methylpropanoic acid] | 51.55% |
| CC(C)Oc1cc(OCc2cc(Cl)cc3c2OC(C)(C)C3)ccc1CCC(=O)O [Example 116, 3-(4-((5-chloro-2,2-dimethyl-2,3-dihydrobenzofuran-7-yl)methoxy)-2-isopropoxyphenyl)propanoic acid] | 145.6% |
| CC(=O)Nc1cc(COc2ccc(CC(C)C(=O)O)cc2)c2c(c1)CC(C)(C)O2 (centres unmarked) [Example 123, 3-(4-((5-acetamido-2,2-dimethyl-2,3-dihydrobenzofuran-7-yl)methoxy)phenyl)-2-methylpropanoic acid] | 47.01% |
| Cc1cc2c(OCc3cc(F)cc4c3OC(C)(C)C4)ccc(CCC(=O)O)c2o1 [Example 125, 3-(4-((5-fluoro-2,2-dimethyl-2,3-dihydrobenzofuran-7-yl)methoxy)-2-methylbenzofuran-7-yl)propanoic acid] | 32.57% |
| CC(=O)NCCOC(=O)C(C)Cc1ccc(OCc2cc(Cl)cc3c2OC(C)(C)C3)c(C(F)(F)F)c1 (centres unmarked) [Example 126, 2-acetamidoethyl 3-(4-((5-chloro-2,2-dimethyl-2,3-dihydrobenzofuran-7-yl)methoxy)-3-(trifluoromethyl)phenyl)-2-methylpropanoate] | 47.02% |
| CC(Cc1ccc(OCc2cc(Cl)cc3c2OC(C)(C)C3O)cc1)C(=O)O (centres unmarked) [Example 130, 3-(4-((5-chloro-3-hydroxy-2,2-dimethyl-2,3-dihydrobenzofuran-7-yl)methoxy)phenyl)-2-methylpropanoic acid] | 103.85% |
| CC1(C)Cc2cc(F)cc(COc3ccc(CC(=O)O)cc3)c2O1 [Example 133, 2-(4-((5-fluoro-2,2-dimethyl-2,3-dihydrobenzofuran-7-yl)methoxy)phenyl)acetic acid] | 103.4% |
| CCc1cc(OCc2cc(F)cc3c2OC(C)(C)C3)ccc1CCC(=O)O [Example 134, 3-(2-ethyl-4-((5-fluoro-2,2-dimethyl-2,3-dihydrobenzofuran-7-yl)methoxy)phenyl)propanoic acid] | 151.44% |
| CC1(C)Cc2cc(F)cc(COc3ccc(CCC(=O)O)c(OC(F)(F)F)c3)c2O1 [Example 136, 3-(4-((5-fluoro-2,2-dimethyl-2,3-dihydrobenzofuran-7-yl)methoxy)-2-(trifluoromethoxy)phenyl)propanoic acid] | 140.51% |
| CCc1cc(OCc2cccc3c2CC(C)(C)O3)ccc1CCC(=O)O [Example 140, 3-(4-((2,2-dimethyl-2,3-dihydrobenzofuran-4-yl)methoxy)-2-ethylphenyl)propanoic acid] | 146.18% |
| [2H]C1([2H])c2cc(F)cc(COc3ccc(CC(C)C(=O)O)cc3)c2OC1(C)C (centres unmarked) [Example 145, 3-(4-((3,3-dideuterio-5-fluoro-2,2-dimethyl-2,3-dihydrobenzofuran-7-yl)methoxy)phenyl)-2-methylpropanoic acid] | 143.69% |
| [2H]C1([2H])c2cc(Cl)cc(COc3ccc(CC(C)C(=O)O)cc3F)c2OC1(C)C (centres unmarked) [Example 146, 3-(4-((3,3-dideuterio-5-chloro-2,2-dimethyl-2,3-dihydrobenzofuran-7-yl)methoxy)-3-fluorophenyl)-2-methylpropanoic acid] | 140.72% |
| [2H]C1([2H])c2cc(Cl)cc(COc3ccc(CC(C)C(=O)O)cc3C(F)(F)F)c2OC1(C)C (centres unmarked) [Example 147, 3-(4-((3,3-dideuterio-5-chloro-2,2-dimethyl-2,3-dihydrobenzofuran-7-yl)methoxy)-3-(trifluoromethyl)phenyl)-2-methylpropanoic acid] | 138.65% |
| CC(Cc1ccc(OCc2cc(Cl)cc3c2OCC3(C)C)cc1)C(=O)O (centres unmarked) [Example 148, 3-(4-((5-chloro-3,3-dimethyl-2,3-dihydrobenzofuran-7-yl)methoxy)phenyl)-2-methylpropanoic acid] | 113.89% |
| Cc1cc2cccc(COc3ccc4c(c3)CCC4CC(=O)O)c2s1 (centres unmarked) [Example 152, 2-(5-((2-methylbenzo[b]thiophen-7-yl)methoxy)-2,3-dihydro-1H-inden-1-yl)acetic acid] | 83.81% |
| CC1(C)Cc2cc(F)cc(COc3ccc4c(c3)CCCC4CC(=O)O)c2O1 (centres unmarked) [Example 153, 2-(6-((5-fluoro-2,2-dimethyl-2,3-dihydrobenzofuran-7-yl)methoxy)-1,2,3,4-tetrahydronaphthalen-1-yl)acetic acid] | 106.81% |
| CC(Cc1ccc(OCc2cc(Cl)cc3c2OC2(CCCC2)C3)cc1)C(=O)O (centres unmarked) [Example 159, 3-(4-((5-chloro-3H-spiro[benzofuran-2,1′-cyclopentane]-7-yl)methoxy)phenyl)-2-methylpropanoic acid] | 164.79% |
| CC1(C)Cc2cc(F)cc(COc3ccc(CCCC(=O)O)cc3)c2O1 [Example 160, 4-(4-((5-fluoro-2,2-dimethyl-2,3-dihydrobenzofuran-7-yl)methoxy)phenyl)butanoic acid] | 172.13% |
| CC(Cc1ccc(OCc2cc(F)cc3c2OC2(CCCC2)C3)cc1)C(=O)O (centres unmarked) [Example 162, 3-(4-((5-fluoro-3H-spiro[benzofuran-2,1′-cyclopentane]-7-yl)methoxy)phenyl)-2-methylpropanoic acid] | 154.48% |
| O=C(O)C1CC1c1ccc(OCc2cc(F)cc3c2OC2(CCCC2)C3)cc1 (centres unmarked) [Example 165, 2-(4-((5-fluoro-3H-spiro[benzofuran-2,1′-cyclopentane]-7-yl)methoxy)phenyl)cyclopropanecarboxylic acid] | 158.08% |

Now from value to compound:

| % Activity (GW9508 Reference Compound) | Compound |
| --- | --- |
| 115.42% | CC1(C)Cc2cc(Cl)cc(COc3ccc4c(c3)CC(C(=O)O)C4)c2O1 (centres unmarked) [Example 112, 5-((5-chloro-2,2-dimethyl-2,3-dihydrobenzofuran-7-yl)methoxy)-2,3-dihydro-1H-indene-2-carboxylic acid] |
| 123.58% | CC1(C)Cc2cc(F)cc(COc3ccc4cc(C(=O)O)ccc4c3)c2O1 [Example 114, 6-((5-fluoro-2,2-dimethyl-2,3-dihydrobenzofuran-7-yl)methoxy)-2-naphthoic acid] |
| 151.78% | CC(C)Oc1cc(OCc2cc(F)cc3c2OC(C)(C)C3)ccc1CCC(=O)O [Example 115, 3-(4-((5-fluoro-2,2-dimethyl-2,3-dihydrobenzofuran-7-yl)methoxy)-2-isopropoxyphenyl)propanoic acid] |
| 104.49% | Cc1cc2cc(Cl)cc(COc3ccc(CC(C)C(=O)O)cc3F)c2o1 (centres unmarked) [Example 120, 3-(4-((5-chloro-2-methylbenzofuran-7-yl)methoxy)-3-fluorophenyl)-2-methylpropanoic acid] |
| 3.58% | CN(C)Cc1cc(OCc2cc(F)cc3c2OC(C)(C)C3)ccc1CCC(=O)O [Example 122, 3-(2-((dimethylamino)methyl)-4-((5-fluoro-2,2-dimethyl-2,3-dihydrobenzofuran-7-yl)methoxy)phenyl)propanoic acid] |
| 131.64% | CC(Cc1ccc(OCc2cc(OC(F)(F)F)cc3c2OC(C)(C)C3)cc1)C(=O)O (centres unmarked) [Example 124, 3-(4-((2,2-dimethyl-5-(trifluoromethoxy)-2,3-dihydrobenzofuran-7-yl)methoxy)phenyl)-2-methylpropanoic acid] |
| 152.93% | CC1(C)Cc2cc(Cl)cc(CNc3ccc(CCC(=O)O)cc3)c2O1 [Example 127, 3-(4-(((5-chloro-2,2-dimethyl-2,3-dihydrobenzofuran-7-yl)methyl)amino)phenyl)propanoic acid] |
| 143.3% | C[C@H](Cc1ccc(OCc2cc(Cl)cc3c2OC(C)(C)C3)c(F)c1)C(=O)O [Example 141, (R)-3-(4-((5-chloro-2,2-dimethyl-2,3-dihydrobenzofuran-7-yl)methoxy)-3-fluorophenyl)-2-methylpropanoic acid] |
| 90.56% | C[C@H](Cc1ccc(OCc2cc(Cl)cc3c2OC(C)(C)C3)c(C(F)(F)F)c1)C(=O)O [Example 143, (R)-3-(4-((5-chloro-2,2-dimethyl-2,3-dihydrobenzofuran-7-yl)methoxy)-3-(trifluoromethyl)phenyl)-2-methylpropanoic acid] |
| 117.38% | Cc1cc2cccc(COc3c(F)cc(CC(C)C(=O)O)cc3F)c2s1 (centres unmarked) [Example 151, 3-(3,5-difluoro-4-((2-methylbenzo[b]thiophen-7-yl)methoxy)phenyl)-2-methylpropanoic acid] |
| 148.87% | CC1(C)Cc2cc(Cl)cc(COc3ccc(C(C)(C)CC(=O)O)cc3)c2O1 [Example 156, 3-(4-((5-chloro-2,2-dimethyl-2,3-dihydrobenzofuran-7-yl)methoxy)phenyl)-3-methylbutanoic acid] |
| 98.97% | CC(CCc1ccc(OCc2cc(F)cc3c2OC(C)(C)C3)cc1)C(=O)O (centres unmarked) [Example 171, 4-(4-((5-fluoro-2,2-dimethyl-2,3-dihydrobenzofuran-7-yl)methoxy)phenyl)-2-methylbutanoic acid] |
